The experiment concerns the target T1, PAD4 (Homo sapiens, UniProt Q9UM07, G112A/G55S/V82A).
T1 construct: made in house
Nature of the experiment: Inhibition reaction of Bz-Arg derivatives on PAD4 digestion. The experiment is classed as biochemical. Particulars: substrate Bz-Arg; 20 μl inhibitor solution of 1 nmol/μl; 10 mM CaCl2, pH 7.6; 37° C. for 40 or 60 minutes; reverse-phase HPLC. The protocol:
A buffer solution B (0.1 M Tris/HCl, 10 mM CaCl2, 2 mM DTT, pH 7.6, 125 μl), Bz-Arg (0.1 M Tris/HCl, 10 mM CaCl2, pH 7.6, 25 μl (a solution prepared in a concentration of 1 nmol/μl)) and PAD4 (1 μl) were mixed together under ice-cooling to give a Bz-Arg solution. PAD4 was prepared in accordance with the methods described in The Journal of Biological Chemistry, Vol. 277, No. 51, pp. 49562-49568, 2002 and in the documents cited in the journal. Twenty μl each of Bz-Arg (mono-methyl), Bz-ADMA, Bz-SDMA and a buffer solution A (0.1 M Tris/HCl, 10 mM CaCl2, pH 7.6) (a solution prepared in a concentration of 1 nmol/μl) was mixed with the Bz-Arg solution (30 μl) and allowed to react at 37° C. for 40 or 60 minutes. The reaction was quenched with 1 M HCl (50 μl) and then subjected to reverse-phase HPLC to separate the reaction mixture. […] The results as determined 40 minutes and 60 minutes after the start of reaction are shown in FIG. 3 and FIG. 4, respectively. In FIGS. 3 and 4, the reference number 1 represents the result with no inhibitor, 2 for the result with Bz-Arg (mono-methyl), 3 for the results with Bz-ADMA, and 4 for the result with Bz-SDMA; the vertical axis indicates the sample number and the horizontal axis indicates the yield of the deimination reaction (i.e., yield of the Bz-citrulline produced).

T1 sequence (Q9UM07 whole entry G55S/V82A/G112A): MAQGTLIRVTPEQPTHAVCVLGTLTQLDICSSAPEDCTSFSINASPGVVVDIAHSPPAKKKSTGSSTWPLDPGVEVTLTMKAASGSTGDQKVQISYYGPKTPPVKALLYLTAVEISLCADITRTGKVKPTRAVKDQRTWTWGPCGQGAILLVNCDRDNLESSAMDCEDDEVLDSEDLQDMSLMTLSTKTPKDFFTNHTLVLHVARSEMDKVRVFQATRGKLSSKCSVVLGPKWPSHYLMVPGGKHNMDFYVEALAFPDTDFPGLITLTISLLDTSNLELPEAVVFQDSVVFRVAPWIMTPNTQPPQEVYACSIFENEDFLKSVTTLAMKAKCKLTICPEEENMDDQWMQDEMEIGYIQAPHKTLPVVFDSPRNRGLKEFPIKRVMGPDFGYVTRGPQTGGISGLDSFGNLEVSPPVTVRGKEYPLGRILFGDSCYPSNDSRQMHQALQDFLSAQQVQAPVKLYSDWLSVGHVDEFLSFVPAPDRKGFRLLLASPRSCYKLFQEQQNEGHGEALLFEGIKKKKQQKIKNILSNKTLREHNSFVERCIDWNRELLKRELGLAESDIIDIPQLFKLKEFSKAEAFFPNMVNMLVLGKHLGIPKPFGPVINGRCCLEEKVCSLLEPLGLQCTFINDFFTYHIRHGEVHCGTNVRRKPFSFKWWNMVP

Consider `C/N=C(/NC)NCCCC(NC(=O)c1ccccc1)C(=O)O` (centres unmarked) [Bz-SDMA], for which the “inhibitory effect on PAD4 digestion (deimination of Bz-Arg, yield of the Bz-citrulline produced)” value was “no inhibitory effect”.
`CN(C)C(=N)NCCCC(NC(=O)c1ccccc1)C(=O)O` (centres unmarked) [Bz-ADMA]: the “inhibitory effect on PAD4 digestion (deimination of Bz-Arg, yield of the Bz-citrulline produced)” value is given as “most potent inhibitory effect”.

The values are drawn from patent US20070276040A1, “Peptidyl Arginine Deiminase Type IV Inhibitor” (priority 2004, published 2007).
